Data: patent US10624917B2, “Compositions and methods useful for treating or preventing liver diseases or disorders, and promoting weight loss” (YALE UNIVERSITY, priority 2014, dated 2020)
“Also recorded” adds a separate entry of the source.

Experiments:
[1] = tested on: IL-1β secretion and caspase-1 activation in mouse macrophages; assay: Inflammasome inhibition in mouse macrophages; assay type: cell-based
Procedure: (§1) C57BL/6J male mice were placed on a 45% high-fat diet (HFD) for […] with and without digoxin (ip 1 mg/kg twice a week). Digoxin, 1 mg/kg ip daily, in mice results in the therapeutic serum levels achieved in humans (0.5-2 ng/ml). Plasma ALT, liver histology, neutrophil staining, leukocytes profiling, mitochondrial reactive oxygen species (ROS) generation, and gene transcriptome microarrays were analyzed. The ability of digoxin to inhibit inflammasome in mouse and human macrophages was tested. The chronic plus binge model of alcoholic hepatitis and LPS/D-GalN hepatitis models were also performed.

in vivo = conditions: mouse, 1 mg/kg
Procedure: FIG. 19 is a bar graph illustrating plasma digoxin levels in mice. Saline or digoxin were daily injected in mice at a dose of 1.0 mg/kg. Plasma digoxin levels measured 24 hours after the final injection were at or below the therapeutic range for humans (0.8-2 ng/mL).
as §1

mouse macrophages = assay: Mitochondrial ROS production in mouse macrophages; assay type: cell-based; conditions: TLR and hydrogen peroxide stimulation
human macrophages = assay: Mitochondrial ROS production in human macrophages; assay type: cell-based; conditions: TLR and hydrogen peroxide stimulation
[2] = tested on: C57BL/6 mice challenged with LPS/D-galactosamine; assay: LPS/D-GalN hepatitis (acute liver injury) model; assay type: in vivo, mouse
Procedure: FIGS. 23A-23D illustrate the finding that digoxin protects the severity of experimental acute liver failure. Digoxin was administrated intraperitoneally to C57BL/6 mice at dose level of 2, 1, 0.2, 0.05 mg/kg body weight and saline control for 1 hour, and then the mice were challenged with LPS (1 mg/kg body weight)/D-galactosamine (D-GalN) for 5 hours. The morphology of liver tissue was determined by H & E staining, and the inflammation was determined by the neutrophil infiltration of Gr-1 antibody staining Representative H & E stains (FIG. 23A, upper), and Gr-1 (FIG. 23A, lower) positive area of liver sections (original magnification ×100) from digoxin and saline control are illustrated. Graphs show quantification of injured (FIG. 23B) or Gr-1 (FIG. 23C) positive area by morphometry using Image J. *p<0.05 for each dosage of digoxin group versus saline control. The activity of the hepatic injury marker alanine transaminase (ALT) in serum level from digoxin versus saline control was measured (FIG. 23 D). All data throughout the figure are shown as the mean±SD. Statistical significance was determined by one-way ANOVA.
FIGS. 25A-25H illustrate the finding that digoxin alleviates hepatic oxidative stress and inflammasome activation. C57BL/6 mice were injected intraperitoneally with digoxin (1 mg/kg) and PBS control for 1 hour, and then challenged with LPS (1 mg/kg)/D-GlaN (500 mg/kg) for 5 h; C57BL/6 mice were on HFD with concurrent intraperitoneal injection of digoxin (1 mg/kg) for 12 weeks. The cellular oxidative stress and intracellular ROS production was monitored by intraperitoneal injection of DHE in last 30 min before the mice sacrificed. Representative DHE stains in LPS/D-GlaN (FIG. 25A) and HFD (FIG. 25B) from digoxin versus saline control are illustrated. The quantification of DHE positive area in digoxin versus saline control was performed (FIG. 25A, lower, and FIG. 25B, lower). The total RNA from liver tissue was isolated, and applied for gene expression of proIL-1β, TNFα, NLRP3 and HIF1a (FIGS. 25C-25F). The total liver protein was applied for protein expression of HIF1α, caspase-1, proIL-1β by western blot (FIG. 25H). The serum IL-1β was measured by ELISA (FIG. 25G). All data throughout the figure are shown as the mean±SD from 5 mice in each group. Statistical significance was determined by one-way ANOVA. *p<0.05, **p<0.01 for each digoxin group versus saline control.
as §1

[3] = tested on: C57BL/6 mice on high-fat diet; assay: High-fat diet (HFD) NASH model; assay type: in vivo, mouse
Procedure: FIGS. 21A-21C illustrate the finding that digoxin reduces liver damage, inflammation, glycolysis and total cholesterol. FIG. […] The liver tissues were performed by H & E staining, and the neutrophils were stained with CD11b/Ly6G double positive cells by FACS. Data are expressed as the mean±SD from 5 mice in each treatment group. *p<0.05 determined by Student's t-test. […] Data are expressed as the mean±SD from 5 mice in each treatment group. *p<0.05 determined by Student's t-test. FIG. 21C: The liver total RNA were isolated from as procedure from FIG. 21a, and subjected to illumina transcriptome analysis. Over 15 genes that most highly expressed were listed. Data are expressed as the mean±SD from 3 mice in each treatment group
FIGS. 22A-22D illustrate the finding that digoxin reduces high fat feeding induced obesity in mice. Wild type C57BL/6 mice were supplied with high-fat diet food (Research diets D12451 45% fat) for 12 weeks with or without the concurrent IP injection of Digoxin (twice a week, 1.0 mg/kg) or PBS control. The body weight was carefully monitored as the change of each 3 day's average. […] FIG. 22A illustrates examples of mice on high-fat diet with (DIG) and without (Ctrl) digoxin. […] The ratio of white adipose tissue and bodyweight after 12 weeks is shown (FIG. 22C). […] Data are expressed as the mean±SD from 5 mice in each treatment group. *p<0.05 determined by Student's t-test.
FIGS. 24A-24G illustrate the finding that digoxin limits hepatic steatosis and inflammation. […] The liver tissues were applied for H & E staining, and graphs show quantification of NAFLD histological activity score (FIGS. 24A-24B). The liver tissue inflammation was also determined by the neutrophil and monocyte infiltration, which measured by CD11b/Ly6G and CD11b/Ly6C double positive cells using FACS ([…]). Representative FACS flows from digoxin versus saline control are shown (FIGS. 24F-24G). The quantification of neutrophils and monocytes in digoxin versus saline control was performed. Serum ALT level in digoxin versus saline control was measured (FIGS. 24C-24D). The steatosis maker of triacylglcerol (TG) accumulation in the lever after digoxin treatment versus saline control was determined (FIG. 24E). All data throughout the figure are shown as the mean±SD from 5 mice in each group. Statistical significance was determined by one-way ANOVA. *p<0.05, **p<0.01 for each digoxin group versus saline control.
as §1

[4] = tested on: mice, chronic plus binge model of alcoholic hepatitis; assay: Chronic plus binge model of alcoholic hepatitis; assay type: in vivo, mouse
Procedure: as §1

[5] = ip 1 mg/kg, LPS/D-GlaN (5 h) and HFD (12 weeks) mice
[6] = twice, a quarter and a twentieth of the human equivalent dose
[7] = HFD 12 weeks, IP twice a week 1.0 mg/kg
[8] = HFD 12 weeks, ip 0.2 and 0.05 mg/kg twice a week, low dose-dependent manner

With `C[C@H]1O[C@@H](O[C@@H]2[C@@H](O)C[C@H](O[C@@H]3[C@@H](O)C[C@@H](O[C@H]4CC[C@@]5(C)[C@H](CC[C@@H]6[C@@H]5C[C@@H](O)[C@]5(C)C(C7=CC(=O)OC7)CC[C@]65O)C4)O[C@@H]3C)O[C@@H]2C)C[C@H](O)[C@H]1O` (stereo partly drawn) [digoxin, 4-[(3S,5R,8R,9S,10S,12R,13S,14S)-3-[(2S,4S,5R,6R)-5-[(2S,4S,5R,6R)-5-[(2S,4S,5R,6R)-4,5-dihydroxy-6-methyl-oxan-2-yl]oxy-4-hydroxy-6-methyl-oxan-2-yl]oxy-4-hydroxy-6-methyl-oxan-2-yl]oxy-12,14-dihydroxy-10,13-dimethyl-1,2,3,4,5,6,7,8,9,11,12,15,16,17-tetradecahydrocyclopenta[a]phenanthren-17-yl]-5H-furan-2-one] as the compound, how does the “IL-1 β secretion” value [1] read?
Its value is “inhibited”.

What about the caspase-1 activation [1] of the same compound?
The caspase-1 activation was “inhibited”.

What about the concentration at 24 h (in vivo) of the same compound?
Its concentration at 24 h is 0.8 to 2 ng/mL.

And the concentration at 24 h (in vivo; ip)?
The concentration at 24 h was 0.5 to 2 ng/mL.

What about the “mitochondrial ROS production” value (mouse macrophages) of the same compound?
The value was “dose-dependently inhibited”.

And the “mitochondrial ROS production” value (human macrophages)?
Its value is “dose-dependently inhibited”.

What about the histological injury ([2]; LPS/D-GalN hepatitis) of the same compound?
Its histological injury is “reduced”.

And the neutrophilic infiltrate ([2]; LPS/D-GalN hepatitis)?
The neutrophilic infiltrate was “reduced”.

What about the “serum ALT” value ([2]; LPS/D-GalN hepatitis) of the same compound?
Its value is “lower”.

And the hepatic oxidative stress [2, 5]?
Its hepatic oxidative stress is “alleviates”.

What about the inflammasome activation [2, 5] of the same compound?
The inflammasome activation was “alleviates”.

And the “severity of experimental acute liver failure” value ([2]; ip 2, 1, 0.2, 0.05 mg/kg 1 hour before LPS/D-GalN for 5 hours)?
Its value is “protects”.

And the “inflammation in an acute liver injury model” value ([2]; mouse, in vivo)?
Its value is “inhibits”.

And the HIF-1α protein [2, 6]?
Its HIF-1α protein is “reduction”.

What about the IL-1β protein [2, 6] of the same compound?
The IL-1β protein was “reduction”.

What about the “cleaved (P10) caspase-1 protein” value [2, 6] of the same compound?
The value was “reduction”.

What about the “liver HIF-1α transcripts” value [2, 6] of the same compound?
Its value is “reduction”.

And the “liver Pro-IL-1β transcripts” value [2, 6]?
The value was “reduction”.

And the “liver hemorrhage and necrosis” value [2, 6]?
The value was “improvement”.

And the pro-IL-1β protein [2, 6]?
Its pro-IL-1β protein is “reduction”.

And the “fat deposition (liver oil red, TG content)” value ([3]; HFD 12 weeks, 1 mg/kg twice a week)?
Its value is “reduces”.

What about the glycolysis [3, 7] of the same compound?
Its glycolysis is “reduces”.

And the “high fat feeding induced obesity” value [3, 7]?
The value was “reduces”.

And the liver damage [3, 7]?
Its liver damage is “reduces”.

What about the serum total cholesterol [3, 7] of the same compound?
The serum total cholesterol was “reduces”.

And the hepatic steatosis [3, 8]?
Its hepatic steatosis is “limits”.

What about the liver inflammation [3, 8] of the same compound?
Its liver inflammation is “limits”.

What about the “signal genes of ROS metabolism, antioxidant pathway and glycolysis (microarray)” value ([3]; HFD liver) of the same compound?
Its value is “down-regulated”.

What about the “serum ALT” value ([3]; HFD+DIG, HFD alone 417±398 U/L, P<0.001) of the same compound?
Its value is 91±73 U/L.

What about the liver inflammation ([3]; HFD, IP twice a week 1 mg/kg) of the same compound?
Its liver inflammation is “reduces; also recorded: limits”.

What about the hepatic steatosis ([3]; HFD, ip 1 mg/kg twice a week) of the same compound?
The hepatic steatosis was “limits”.

What about the histological injury ([3]; HFD, ip 1 mg/kg twice a week) of the same compound?
Its histological injury is “reduced”.

What about the neutrophilic infiltrate ([3]; HFD, ip 1 mg/kg twice a week) of the same compound?
Its neutrophilic infiltrate is “reduced”.

And the liver inflammation ([3]; digoxin started after 4 weeks HFD)?
The liver inflammation was “significant reduction”.

What about the liver neutrophil ([3]; digoxin started after 4 weeks HFD, HFD alone 24.6%) of the same compound?
The liver neutrophil was 14.3%.

And the liver monocytes ([3]; digoxin started after 4 weeks HFD, HFD alone 31.6%)?
Its liver monocytes is 19.1%.

And the “body weight / weight gain” value ([3]; mice on HFD)?
Its value is “less weight gain; also recorded: changes”.

And the histological injury [4]?
Its histological injury is “reduced”.

What about the neutrophilic infiltrate [4] of the same compound?
The neutrophilic infiltrate was “reduced”.

And the “serum ALT” value [4]?
The value was “lower”.
